Results on 16 compounds are retold here after patent publication US11649242B2, “Pyrrolopyrrole compositions as pyruvate kinase (PKR) activators” (FORMA Therapeutics, Inc., priority 2017, dated 2023).

Holding throughout (type): biochemical
One assay concerns the target PKR(wt) (Homo sapiens, UniProt P30613). In words: Luminescence Assay Protocol (Kinase Glo Plus), PKR(Wt/without FBP). The settings on record: without FBP; for activation at 1.54 µM: compound 1.54 μM, read-out: I - AC50 LUM KGP woFBP % Fold @ 1.54 μM mean; for AC50: gmean, read-out: G - AC50 LUM KGP woFBP AC50 μM gmean; for Emax: highest % fold increase at any concentration, read-out: H - AC50 LUM KGP woFBP MAX % FOLD mean. As to the method:
(§1) Example 47: PKR(Wt/without FBP), PKR(G332S/with FBP), PKR(R510Q/without FBP)
(§2) The phosphorylation of Adenosine-5′-diphosphate (ADP) by various mutants of PKR was determined by the Kinase Glo Plus Assay (Promega) in the presence or absence of FBP [D-Fructose-1,6-diphosphate; BOC Sciences, CAS: 81028-91-3] as follows. Unless otherwise indicated, all reagents were purchased from Sigma-Aldrich. All reagents were prepared in buffer containing 50 mM Tris-HCl, 100 mM KCl, 5 mM MgCl2, and 0.01% Triton X100, 0.03% BSA, and 1 mM DTT. Enzyme and PEP [Phospho(enol) pyruvic acid] were added at 2× to all wells of an assay-ready plate containing serial dilutions of test compounds or DMSO vehicle. Final enzyme concentrations for PKR(wt), PKR(R510Q), and PKR(G332S) were 0.8 nM, 0.8 nM, and 10 nM respectively. Final PEP concentration was 100 μM. The Enzyme/PEP mixture was incubated with compounds for 30 minutes at RT before the assay was initiated with the addition of 2×ADP [Adenosine-5′-diphosphate] and KinaseGloPlus. Final concentration of ADP was 100 μM. […] For assays containing FBP, that reagent is added at 30 μM upon reaction initiation. Reactions were allowed to progress for 45 minutes at RT until luminescence was recorded by the BMG PHERAstar FS Multilabel Reader. All compounds were tested in triplicate at concentrations ranging from 42.5 μM to 2.2 nM in 0.83% DMSO.
(§3) Luminescence values were converted to % Fold increase by normalizing to the average of the DMSO control and multiplying by 100. Max, min, slope and AC50 were determined by the standard four parameter fit algorithm of ActivityBase XE Runner. Compounds were evaluated with three parameters—AC50, MAX % Fold, and % Fold@1.54 μM (FIG. 1). The AC50 value for a compound is the concentration […] corresponding to the midway between the maximum and minimum values of the four parameter logistic curve fit (i.e., at which the % fold increase along the four parameter logistic curve fit is halfway between MAX % Fold and MIN % Fold (% Fold Midpoint)), MAX % Fold is the highest fold increase observed at any concentration of compound, and % Fold@1.54 μM is the fold increase at a compound concentration of 1.54 μM. The parameter % Fold@1.54 μM was selected to capture elements of both the AC50 and MAX % Fold and to provide a ranking based on both potency and effect. The compound concentration of 1.54 μM was chosen as one that can optimally differentiate the set of compounds based on the range of activities observed.
(§4) As set forth in Tables 6 and 7 below, AC50 values (columns A, D, G) are defined as follows: ≤0.1 μM (+++); >0.1 μM and ≤1.0 μM (++); >1.0 μM and ≤40 μM (+); >40 μM (0). Max % FOLD values (columns B, E, H) are defined as follows: ≤75% (+); >75% and ≤250% (++); >250% and ≤500% (+++). % Fold@1.54 μM values (columns C, F, I) are defined as follows: ≤75% (+); >75% and ≤250% (++); >250% and ≤500% (+++).
(In general: Kinase-Glo reads ATP consumption through a luciferase reaction.)

For another assay, the target named is PKR(G332S) (Homo sapiens, UniProt P30613, G332S). In words: Luminescence Assay Protocol (Kinase Glo Plus), PKR(G332S/with FBP). To be noted: PKRG332S, with FBP, gmean; read-out: A - AC50 LUM KGP FBP AC50 μM gmean. Here is the method: as §1, §2, §3, §4
The target of the next assay is PKR(R510Q) (Homo sapiens, UniProt P30613, R510Q). In words: Luminescence Assay Protocol (Kinase Glo Plus), PKR(R510Q/without FBP). To be noted: PKRR510Q, without FBP; for activation at 1.54 µM: compound 1.54 μM, read-out: F - AC50 LUM KGP woFBP % Fold @ 1.54 μM mean; for AC50: gmean, read-out: D - AC50 LUM KGP woFBP AC50 μM gmean; for Emax: read-out: E - AC50 LUM KGP woFBP MAX % FOLD mean. As to the method: as §1, §2, §3, §4

[1] abbreviates: highest % fold increase at any concentration.

The structures appear in SMILES notation.

As usually defined, the AC50 is the concentration giving half of the maximal activity seen.

Sequence of PKR(wt) (P30613 whole entry): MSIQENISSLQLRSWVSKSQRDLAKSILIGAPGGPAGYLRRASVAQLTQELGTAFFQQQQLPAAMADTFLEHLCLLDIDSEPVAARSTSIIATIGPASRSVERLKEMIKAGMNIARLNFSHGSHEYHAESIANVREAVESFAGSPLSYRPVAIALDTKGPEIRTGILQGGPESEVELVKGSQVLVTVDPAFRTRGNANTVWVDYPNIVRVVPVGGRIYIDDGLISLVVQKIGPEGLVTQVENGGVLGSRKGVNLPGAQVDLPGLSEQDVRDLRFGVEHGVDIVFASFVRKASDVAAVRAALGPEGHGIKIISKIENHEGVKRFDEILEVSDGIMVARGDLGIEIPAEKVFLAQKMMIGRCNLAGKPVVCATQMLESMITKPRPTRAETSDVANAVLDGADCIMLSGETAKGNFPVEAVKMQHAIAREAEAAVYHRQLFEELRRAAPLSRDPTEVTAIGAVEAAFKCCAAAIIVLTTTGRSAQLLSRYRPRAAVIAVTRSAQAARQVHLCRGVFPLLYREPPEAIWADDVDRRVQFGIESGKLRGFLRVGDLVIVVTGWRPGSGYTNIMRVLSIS
Sequence of PKR(R510Q) (P30613 whole entry R510Q): as the sequence (P30613 whole entry) above, with R510Q counted along it
Sequence of PKR(G332S) (P30613 whole entry G332S): as the sequence (P30613 whole entry) above, with G332S counted along it

With `CC(C)(O)CC(=O)N1CC2=C(C1)CN(S(=O)(=O)c1ccc3occc3c1)C2` [Example 25, 1-(5-(benzofuran-5-ylsulfonyl)-3,4,5,6-tetrahydropyrrolo[3,4-c]pyrrol-2(1H)-yl)-3-hydroxy-3-methylbutan-1-one], on PKR(wt), the activation at 1.54 µM fell in the range of 75 to 250%, the concentration at half-maximal activity (AC50) lay within 0.1 to 1 µM and the Emax was in the range of 250 to 500%.

`C[C@@H](O)CC(=O)N1CC2=C(C1)CN(S(=O)(=O)c1ccc3occc3c1)C2` [Example 23, (R)-1-(5-(benzofuran-5-ylsulfonyl)-3,4,5,6-tetrahydropyrrolo[3,4-c]pyrrol-2(1H)-yl)-3-hydroxybutan-1-one]: on PKR(wt), the activation at 1.54 µM was 250 to 500%, the AC50 fell in the range of 0.1 to 1 µM and the Emax was in the range of 250 to 500%.

Turning to `O=C(C(CO)c1ccccn1)N1CC2=C(C1)CN(S(=O)(=O)c1ccc(OC(F)F)cc1)C2` (single isomer, unassigned) [Example 42, (R or S)-1-(5-((4-(difluoromethoxy)phenyl)sulfonyl)-3,4,5,6-tetrahydropyrrolo[3,4-c]pyrrol-2(1H)-yl)-3-hydroxy-2-(pyridin-2-yl)propan-1-one], the concentration at half-maximal activity (AC50) at PKR(G332S) is at most 0.1 µM.

Turning to `O=C([C@@H]1CCOC1)N1CC2=C(C1)CN(S(=O)(=O)c1ccc3occc3c1)C2` [Example 12, (R)-(5-(benzofuran-5-ylsulfonyl)-3,4,5,6-tetrahydropyrrolo[3,4-c]pyrrol-2(1H)-yl)(tetrahydrofuran-3-yl)methanone], on PKR(wt), the activation at 1.54 µM is 250 to 500%, the AC50 lay within 0.1 to 1 µM and the Emax was in the range of 250 to 500%.

`COCC1(C(=O)N2CC3=C(C2)CN(S(=O)(=O)c2ccc4occc4c2)C3)CC1` [Example 17, (5-(benzofuran-5-ylsulfonyl)-3,4,5,6-tetrahydropyrrolo[3,4-c]pyrrol-2(1H)-yl)(1-(methoxymethyl)cyclopropyl)methanone]: on PKR(wt), the activation at 1.54 µM lay within 75 to 250%, the half-maximal activity concentration (AC50) is 0.1 to 1 µM and the Emax was in the range of 75 to 250%.

Regarding `Cc1nc2ccc(S(=O)(=O)N3CC4=C(CN(C(=O)C(C)(C)CO)C4)C3)cc2o1` [Example 21, 3-hydroxy-2,2-dimethyl-1-(5-((2-methylbenzo[d]oxazol-6-yl)sulfonyl)-3,4,5,6-tetrahydropyrrolo[3,4-c]pyrrol-2(1H)-yl)propan-1-one], on PKR(wt), the activation at 1.54 µM was in the range of 75 to 250%, the AC50 is 1 to 40 µM and the Emax is 75 to 250%.

Regarding `O=C(C(CO)c1ccccc1)N1CC2=C(C1)CN(S(=O)(=O)c1ccc3occc3c1)C2` (stereo not shown) [Example 8, 1-(5-(benzofuran-5-ylsulfonyl)-3,4,5,6-tetrahydropyrrolo[3,4-c]pyrrol-2(1H)-yl)-3-hydroxy-2-phenylpropan-1-one], on PKR(wt), the activation at 1.54 µM was 250 to 500%, the AC50 is at most 0.1 µM and the Emax lay in the range of 250 to 500%.

Turning to `O=C(CCO)N1CC2=C(C1)CN(S(=O)(=O)c1ccc3occc3c1)C2` [Example 22, 1-(5-(benzofuran-5-ylsulfonyl)-3,4,5,6-tetrahydropyrrolo[3,4-c]pyrrol-2(1H)-yl)-3-hydroxypropan-1-one], at PKR(wt), the activation at 1.54 µM lay within 250 to 500%, the AC50 lay in the range of 0.1 to 1 µM and the Emax was in the range of 250 to 500%.

With `O=C(CCO)N1CC2=C(C1)CN(S(=O)(=O)c1ccc(OC(F)F)cc1)C2` [Example 54, 1-(5-((4-(difluoromethoxy)phenyl)sulfonyl)-3,4,5,6-tetrahydropyrrolo[3,4-c]pyrrol-2(1H)-yl)-3-hydroxypropan-1-one], at PKR(wt), the activation at 1.54 µM was in the range of 75 to 250%, the AC50 lay in the range of 1 to 40 µM and the Emax fell in the range of 250 to 500%. On PKR(R510Q), the activation at 1.54 µM is 75 to 250% and the concentration at half-maximal activity (AC50) was 1 to 40 µM. Moreover, the Emax on PKR(R510Q) (setting [1]) is 250 to 500%.

In the case of `O=C([C@H]1CCOC1)N1CC2=C(C1)CN(S(=O)(=O)c1ccc3occc3c1)C2` [Example 13, (S)-(5-(benzofuran-5-ylsulfonyl)-3,4,5,6-tetrahydropyrrolo[3,4-c]pyrrol-2(1H)-yl)(tetrahydrofuran-3-yl)methanone], on PKR(wt), the activation at 1.54 µM lay within 75 to 250%, the half-maximal activity concentration (AC50) lay within 0.1 to 1 µM and the Emax lay in the range of 250 to 500%.

For the compound `O=C(C(CO)c1ccccn1)N1CC2=C(C1)CN(S(=O)(=O)c1cnc3c(c1)OCCO3)C2` (single isomer, unassigned) [Example 4, (S or R)-1-(5-((2,3-dihydro-[1,4]dioxino[2,3-b]pyridin-7-yl)sulfonyl)-3,4,5,6-tetrahydropyrrolo[3,4-c]pyrrol-2(1H)-yl)-3-hydroxy-2-(pyridin-2-yl)propan-1-one], on PKR(wt), the activation at 1.54 µM was in the range of 75 to 250%, the AC50 was in the range of 1 to 40 µM and the Emax was in the range of 75 to 250%. In addition, on PKR(R510Q), the activation at 1.54 µM is 75 to 250% and the AC50 was 1 to 40 µM. Moreover, on PKR(R510Q) (setting [1]), the “E - AC50 LUM KGP woFBP MAX % FOLD mean” value is “++ (>75% and ≤250% (++))”.

As to `C[C@H](O)CC(=O)N1CC2=C(C1)CN(S(=O)(=O)c1ccc3occc3c1)C2` [Example 24, (S)-1-(5-(benzofuran-5-ylsulfonyl)-3,4,5,6-tetrahydropyrrolo[3,4-c]pyrrol-2(1H)-yl)-3-hydroxybutan-1-one], at PKR(wt), the activation at 1.54 µM was 75 to 250%, the concentration at half-maximal activity (AC50) was 0.1 to 1 µM and the Emax was 250 to 500%.

As for `CC(CO)(CO)C(=O)N1CC2=C(C1)CN(S(=O)(=O)c1ccc3occc3c1)C2` [Example 10, 1-(5-(benzofuran-5-ylsulfonyl)-3,4,5,6-tetrahydropyrrolo[3,4-c]pyrrol-2(1H)-yl)-3-hydroxy-2-(hydroxymethyl)-2-methylpropan-1-one], at PKR(wt), the activation at 1.54 µM was 75 to 250%, the AC50 was at most 0.1 µM and the Emax was in the range of 250 to 500%.

Turning to `CC(C)(CO)C(=O)N1CC2=C(C1)CN(S(=O)(=O)c1ccc3occc3c1)C2` [Example 9, 1-(5-(benzofuran-5-ylsulfonyl)-3,4,5,6-tetrahydropyrrolo[3,4-c]pyrrol-2(1H)-yl)-3-hydroxy-2,2-dimethylpropan-1-one], on PKR(wt), the activation at 1.54 µM lay within 75 to 250%, the AC50 was at most 0.1 µM and the Emax is 75 to 250%.

Regarding `COc1ccc(S(=O)(=O)N2CC3=C(CN(C(=O)CCO)C3)C2)cc1` [Example 40, 3-hydroxy-1-(5-((4-methoxyphenyl)sulfonyl)-3,4,5,6-tetrahydropyrrolo[3,4-c]pyrrol-2(1H)-yl)propan-1-one], on PKR(R510Q), the activation at 1.54 µM was in the range of 75 to 250% and the concentration at half-maximal activity (AC50) was in the range of 1 to 40 µM. Also, on PKR(R510Q) (setting [1]), the Emax was 250 to 500%.

As for `CCC(CO)(CO)C(=O)N1CC2=C(C1)CN(S(=O)(=O)c1ccc3occc3c1)C2` [Example 11, 1-(5-(benzofuran-5-ylsulfonyl)-3,4,5,6-tetrahydropyrrolo[3,4-c]pyrrol-2(1H)-yl)-2,2-bis(hydroxymethyl)butan-1-one], at PKR(wt), the activation at 1.54 µM is 75 to 250%, the concentration at half-maximal activity (AC50) lay within 0.1 to 1 µM and the Emax was 250 to 500%.
